Laboratory results taken from US11702422B2, “Imidazopyridazines as modulators of IL-17” (Janssen Pharmaceutica NV, priority 2020, dated 2023).
pIC50: −log10 of the molar value.

Columns and labels:
patients with PsA = settings: PsA with inadequate response to conventional synthetic disease-modifying antirheumatic drug; cited from earlier work
[1] = test system: patients with moderate-to-severe HS; settings: seven of nine patients, open-label pilot-trial; cited from earlier work
patients with active PsA = settings: compared with anti-TNFα antibodies; cited from earlier work
[2] = test system: SCIDhu model of human myeloma; settings: weekly for 4 weeks after first detection of tumor, compared to isotype control mice; cited from earlier work
[3] = biological target: IL-17A(FLAG-Tagged): IL-17RA(His-Tagged) (Homo sapiens, UniProt Q16552, K93Q); test: IL-17A(FLAG-Tagged): IL-17RA(His-Tagged) Binding Disruption Eu-HTRF Assay; settings: IL-17A/IL-17RA binding disruption, simple average if tested more than once
Chain of UniProt Q16552 (Q16552 with tags, fused parts or gaps K93Q): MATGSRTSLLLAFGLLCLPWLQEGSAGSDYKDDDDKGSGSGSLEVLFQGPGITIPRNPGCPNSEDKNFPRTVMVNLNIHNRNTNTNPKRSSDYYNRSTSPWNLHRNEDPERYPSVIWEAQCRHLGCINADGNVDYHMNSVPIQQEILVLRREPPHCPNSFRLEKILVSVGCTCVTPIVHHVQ
Method in brief: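 IC50 comes from a one-site competition fit of the HTRF 665/620 nm ratio. Compound dilutions (2-fold, 22 points) were held 1 h rt with FLAG-tagged IL-17A dimer, then His-tagged IL-17RA plus Eu-cryptate anti-FLAG and D2 anti-His antibodies were added for 2 h rt.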

[4] = test system: IL-17A-induced G-CSF production in human normal keratinocyte (NHK); test: NHK Assay: IL-17A-induced G-CSF production in human normal keratinocytes; type: cell-based; settings: 24 h, adult normal human keratinocytes, IL-17A 5 ng/mL, simple average if tested more than once
Method in brief: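 IL-17A (5 ng/mL final) was pre-incubated 1 h at rt with titrated compound and then added to adult normal human keratinocytes (5% FBS, 0.2% DMSO) for 24 h at 37° C. Supernatant G-CSF was measured by HTRF against a standard curve to derive IC50. Viability was checked by CellTiter-Glo.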

Row | Compound | pIC50 [3] | pIC50 ([4]; Homo sapiens, Keratinocyte) | further results
1 | ixekizumab |  |  | simultaneous improvement of joint and skin disease (ACR50 and PASI100) (patients with PsA): superior to adalimumab
2 | secukinumab |  |  | patients achieving HiSCR [1]: 78%; ACR 20/50/70 response rates (patients with active PsA): higher ACR 20/50/70 response rates; bone damage [2]: reduced bone damage; tumor growth [2]: significant inhibition of tumor growth
3 | COc1cncc(C(=O)N[C@H](c2cn3ncc([C@H](NC(=O)CCC(F)(F)F)C4CC4)cc3n2)C2CCC(F)(F)CC2)n1 [Example 215, N—((S)-(7-((R)-Cyclopropyl(4,4,4-trifluorobutanamido)methyl)imidazo[1,2-b]pyridazin-2-yl)(4,4-difluorocyclohexyl)methyl)-6-methoxypyrazine-2-carboxamide] | 5.70 | < 4.70 | 
4 | O=C(CCC(F)(F)F)N[C@@H](c1cnn2cc([C@@H](NC(=O)c3ccncc3F)C3CCC(F)(F)CC3)nc2c1)C1CC1 [Example 195, N—((S)-(7-((R)-Cyclopropyl(4,4,4-trifluorobutanamido)methyl)imidazo[1,2-b]pyridazin-2-yl)(4,4-difluorocyclohexyl)methyl)-3-fluoroisonicotinamide] | 6.24 | 5.80 | 
5 | Cc1nonc1C(=O)N[C@H](c1cn2ncc([C@H](NC(=O)C(F)C3CC3)C3CC3)cc2n1)C1CCC(F)(F)CC1 (single isomer, unassigned) [Example 332, N—((S)-(7-((R)-Cyclopropyl((S*)-2-cyclopropyl-2-fluoroacetamido)methyl)imidazo[1,2-b]pyridazin-2-yl)(4,4-difluorocyclohexyl)methyl)-4-methyl-1,2,5-oxadiazole-3-carboxamide] | 5.82 |  | pIC50 [4]: 4.92
6 | COc1nccc(C(=O)N[C@H](c2cn3ncc([C@H](NC(=O)CCC(F)(F)F)C4CC4)cc3n2)C2CCC(F)(F)CC2)n1 [Example 211, N—((S)-(7-((R)-Cyclopropyl(4,4,4-trifluorobutanamido)methyl)imidazo[1,2-b]pyridazin-2-_yl)(4,4-difluorocyclohexyl)methyl)-2-methoxypyrimidine-4-carboxamide] | 5.37 | < 4.70 | 
7 | Cc1nonc1C(=O)N[C@H](c1cn2ncc([C@H](NC(=O)C(F)C3CCC3)C3CC3)cc2n1)C1CCC(F)(F)CC1 (single isomer, unassigned) [Example 349, N—((S)-(7-((R)-((S*)-2-Cyclobutyl-2-fluoroacetamido)(cyclopropyl)methyl)imidazo[1,2-b]pyridazin-2-yl)(4,4-difluorocyclohexyl)methyl)-4-methyl-1,2,5-oxadiazole-3-carboxamide] | 6.38 |  | pIC50 [4]: 5.77
8 | Cc1nonc1C(=O)N[C@H](c1cn2ncc([C@H](NC(=O)CC(C)(C)C(F)(F)F)C3CC3)cc2n1)C1CCC(F)(F)CC1 [Example 253, N—((S)-(7-((R)-Cyclopropyl(4,4,4-trifluoro-3,3-dimethylbutanamido)methyl)imidazo[1,2-b]pyridazin-2-yl)(4,4-difluorocyclohexyl)methyl)-4-methyl-1,2,5-oxadiazole-3-carboxamide] | 6.66 | 6.12 | 
9 | Cc1nonc1C(=O)N[C@H](c1cn2ncc([C@H](NC(=O)COCC(F)(F)F)C3CC3)cc2n1)C1CCC(F)(F)CC1 [Example 327, N—((S)-(7-((R)-Cyclopropyl(2-(2,2,2-trifluoroethoxy)acetamido)methyl)imidazo[1,2-b]pyridazin-2-yl)(4,4-difluorocyclohexyl)methyl)-4-methyl-1,2,5-oxadiazole-3-carboxamide] | 6.70 | 6.05 | 

More lines, in order of rising pIC50 [3], values ahead:

Row | pIC50 [3] | Compound | pIC50 ([4]; Homo sapiens, Keratinocyte) | further results
10 | 6.74 | CC(C)(O)c1nonc1C(=O)N[C@H](c1cn2ncc(C(NC(=O)CC3CC(F)(F)C3)C3CCC3)cc2n1)C1CCC(F)(F)CC1 (single isomer, unassigned) [Example 499, N—((S)-(7-((R*)-Cyclobutyl(2-(3,3-difluorocyclobutyl)acetamido)methyl)imidazo[1,2-b]pyridazin-2-yl)(4,4-difluorocyclohexyl)methyl)-4-(2-hydroxypropan-2-yl)-1,2,5-oxadiazole-3-carboxamide] | 6.80 | 
11 | 7.00 | O=C(CCC(F)(F)F)N[C@@H](c1cnn2cc([C@@H](NC(=O)c3conc3C3COC3)C3CCC(F)(F)CC3)nc2c1)C1CC1 [Example 235, N—((S)-(7-((R)-Cyclopropyl(4,4,4-trifluorobutanamido)methyl)imidazo[1,2-b]pyridazin-2-yl)(4,4-difluorocyclohexyl)methyl)-3-(oxetan-3-yl)isoxazole-4-carboxamide] | 6.66 | 
12 | 7.02 | O=C(CCC(F)(F)F)N[C@@H](c1cnn2cc([C@@H](NC(=O)c3cnnn3CCC(F)F)C3CCC(F)(F)CC3)nc2c1)C1CC1 [Example 49, N—((S)-(7-((R)-Cyclopropyl(4,4,4-trifluorobutanamido)methyl)imidazo[1,2-b]pyridazin-2-yl)(4,4-difluorocyclohexyl)methyl)-1-(3,3-difluoropropyl)-1H-1,2,3-triazole-5-carboxamide] | 6.96 | 
13 | 7.10 | O=C(CCC(F)(F)F)N[C@@H](c1cnn2cc([C@@H](NC(=O)c3cnoc3C3CC3)C3CCC(F)(F)CC3)nc2c1)C1CC1 [Example 84, 5-Cyclopropyl-N—((S)-(7-((R)-cyclopropyl(4,4,4-trifluorobutanamido)methyl)imidazo[1,2-b]pyridazin-2-yl)(4,4-difluorocyclohexyl)methyl)isoxazole-4-carboxamide] | 6.80 | 
14 | 7.16 | O=C(CC1CC(F)(F)C1)N[C@@H](c1cnn2cc([C@@H](NC(=O)c3nonc3N3CCC3)C3CCC(F)(F)CC3)nc2c1)C1CC1 [Example 386, 4-(Azetidin-1-yl)-N—((S)-(7-((R)-cyclopropyl(2-(3,3-difluorocyclobutyl)acetamido)methyl)imidazo[1,2-b]pyridazin-2-yl)(4,4-difluorocyclohexyl)methyl)-1,2,5-oxadiazole-3-carboxamide] | 6.64 | 
15 | 7.20 | O=C(CC1CC(F)(F)C1)N[C@@H](c1cnn2cc([C@@H](NC(=O)c3nocc3C3CC3)C3CCC(F)(F)CC3)nc2c1)C1CC1 [Example 403, 4-Cyclopropyl-N—((S)-(7-((R)-cyclopropyl(2-(3,3-difluorocyclobutyl)acetamido)methyl)imidazo[1,2-b]pyridazin-2-yl)(4,4-difluorocyclohexyl)methyl)isoxazole-3-carboxamide] | 6.77 | 
16 | 7.34 | Cc1nonc1C(=O)N[C@H](c1cn2ncc(C(NC(=O)CCC(F)(F)F)C(C)C)cc2n1)C1CCC(F)(F)CC1 (single isomer, unassigned) [Example 504, N—((S)-(4,4-Difluorocyclohexyl)(7-((S*)-2-methyl-1-(4,4,4-trifluorobutanamido)propyl)imidazo[1,2-b]pyridazin-2-yl)methyl)-4-methyl-1,2,5-oxadiazole-3-carboxamide] |  | pIC50 [4]: 7.03
17 | 7.34 | O=C(CC1CC(F)(F)C1)NC(c1cnn2cc([C@@H](NC(=O)c3nonc3C3CC3)C3CCC(F)(F)CC3)nc2c1)C(F)F (single isomer, unassigned) [Example 517, 4-Cyclopropyl-N—((S)-(7-((S*)-1-(2-(3,3-difluorocyclobutyl)acetamido)-2,2-difluoroethyl)imidazo[1,2-b]pyridazin-2-yl)(4,4-difluorocyclohexyl)methyl)-1,2,5-oxadiazole-3-carboxamide] |  | pIC50 [4]: 7.35
